Source: patent US8889075B2, “Apparatus for producing water having redox activity” (Kitakyushu Foundation for the Advancement of Industry, …, priority 2007, dated 2014)

Tested on: active oxygen responsive calcium channel (TPC1 channel) of tobacco BY-2 cells
Assay: aequorin luminescence of tobacco BY-2 culture cells after adding reaction water (evaluation of redox activity)
Assay type: cell-based
Conditions: for suppression of the aequorin luminescence reaction induced by water containing active oxygen species: agent added to the reaction, FIG. 11
Source text: In a living organism, Ca^2+ is a signal-transmitting substance which becomes a key in an information transmission path which controls metabolism and gene expression. Usually, a concentration of cytoplasm free calcium ion (hereinafter abbreviated as [Ca^2+]cyt) in live cell is maintained at low concentration and with a difference of 10^6 to 10^7 times compared to extracellular cytoplasm free calcium ion. On a cell membranes of living organisms including plants, calcium channels which constitute calcium inflow paths which are activated and open in response to a specific stimulus exist. The presence of most of calcium channels is elucidated at a gene level or at a protein level. […] As a method of nondestructively measuring the behavior of Ca^2+ in the cell, particularly, a change of [Ca^2+]cyt, a method of monitoring the change of [Ca^2+]cyt in response to various stimulations using cells to which gene of aequorin which is Ca^2+ responsive photoprotein derived from Aequorea Victoria is established. Due to this method, it is possible to monitor the change of [Ca^2+]cyt real time by observing bioluminescence. Accordingly, it is possible to determine whether or not water is turned into water having redox reaction in which the redox action is actually generated and the intracellular response is brought about. […] By evaluating effect of addition of aluminum as an ion channel blocker and effects of an active oxygen removing agent, it is possible to determine whether or not a specific active oxygen responsive calcium channel is stimulated (Kawano, T., Kadono, T., Fumoto, […]., Kuse, M. Isobe, M. Furuichi, T. and Muto, S. (2004) Aluminum as a specific inhibitor of plant TPC1 Ca^2+ channels. Biochemical and Biophysical Research Communications 324 (1): 40-45). Accordingly, by using the experimental system, it is possible to evaluate whether or not active oxygen species are present at a level where active oxygen species can stimulate calcium information transmission which is a key of various physiological action including the cell death or the gene expression in the plant cell. […] 100 ml of water having redox activity is added to 500 ml of suspension of cells in which aequorin is expressed (1:5 mixture, 600 ml in total), and CLA chemiluminescence and aequorin luminescence are measured. The luminescence intensity is marked as relative luminescence intensity (rlu). […]

SMILES	suppression of the aequorin luminescence reaction induced by water containing active oxygen species	concentration of superoxide anion radicals needed for water to have redox activity (intracellular response) (comparison of dissolved oxygen 8 mg/L and 30 mg/L samples, UV plus ultrasonic vibrations, FIG. 12)
[Al+3] [Al^3+]	suppressed	
[La+3] [La^3+]	suppressed	
O=S(=O)(O)c1cc(O)c(O)c(S(=O)(=O)O)c1 [Tiron]	suppressed	
[O]O [superoxide anion radicals]		at least 5 mM
